Source: patent US10370425B2, “Peptide antagonists of the calcitonin CGRP family of peptide hormones and their use” (priority 2012, dated 2019)
Positions of bridges follow the written chain, without caps; N, C: chain ends. Residues, ends and D or L forms follow the SMILES beside them.

Target: T1, amylin receptor, AMY1, a CT (calcitonin) receptor/RAMP1 (receptor-activity modifying protein) complex (Homo sapiens, UniProt O60894+P30988)
T1 construct: host or cells: CHO-K1/AMY1/Gα15
Test: Calcium flux assay (FLIPR Calcium 4) of inhibition of α-CGRP stimulation in CHO-K1/AMY1/Gα15 cells
Type: cell-based
Conditions: at maximal test concentration (series starts with 1 μM); CHO-K1/AMY1/Gα15 cells stimulated with 32 nM (EC80) α-CGRP; n = 2; read-out: % Inhibition @ Maximal concentration (Mean +/− SD, n = 2)
Procedure: Using a calcium flux assay, the dose-dependent inhibitory response of peptide antagonists of the present invention on an amylin receptor, AMY1, a CT (calcitonin) receptor/RAMP1 (receptor-activity modifying protein) complex was determined. The recombinant cell line CHO-K1/AMY1/Gα15 (GenScript, Piscataway, N.J., Catalog No. M00475) was employed in the assay. Peptide antagonist activities were tested, in duplicate, at five different concentrations, starting with 1 μM and serially diluted five-fold, in DMSO. AC187 (SEQ ID NO: 55), a known amylin receptor antagonist (available for example from Tocris Bioscience, Minneapolis, Minn., Catalog No. 3419) was used as a positive control in the assays, and human α-CGRP, a known amylin receptor agonist (SEQ ID NO:56) , (available for example from Tocris Bioscience, Minneapolis, Minn., Catalog No. 3012) was used as a positive control in the assays. The FLIPR® Calcium 4 Assay Kit (Molecular Devices, Sunnyvale, Calif.) was used.
Human α-CGRP having the amino acid sequence, NH2-[…]-NH2 (SEQ ID NO:56) and AC187 having the sequence […] (SEQ ID NO: 55) were employed as negative and positive controls, respectively. Stock solutions were further diluted in HBSS-HEPES buffer to make 5×final control solutions.
CHO-K1/AMY1/Gα15 cells were seeded in a 384-well black wall, clear bottom plate at a density of 20,000 cells/well in 20 μL of growth medium 20 hours prior to the day of the experiment and maintained at 37° C./5% CO2.
Per the assay kit protocol, dye-loading solution (at 2×final concentration) was added into the assay plate, 20 μL per well. Compound solution (at 5 ×final concentration) was added into the assay plate, 10 uL per well. The assay plate was placed into a 37° C. incubator for 1 hour, then left for 15 min at RT. The agonist plate (at 5×EC80 concentration) was placed in Source 2. The total reading time was 120 sec. The agonist was added after 20 seconds reading of the baseline and the fluorescence signal was captured for another 100 seconds (21 s to 120 s).
In screening, cells stimulated with assay buffer were chosen as the background; cells stimulated with agonist (at […] concentration) were chosen as the negative control.
Data were recorded by ScreenWorks (version 3.1) as FMD files and stored on the GenScript computer network for off-line analysis. Data acquisition and analyses was performed using ScreenWorks (version 3.1) program and exported to Excel. The average value of 20 (1 s to 20 s) seconds reading was calculated as the baseline reading and the relative fluorescent units (ΔRFU) intensity values were calculated with the maximal fluorescent units (21 s to 120 s) subtracting the average value of baseline reading.
The IC50 value of AC187 was 8 μM. The inhibitory activity of the tested peptide antagonists was normalized with the negative control (AC187) and reported as % Inhibition, calculated from the following equation: % Inhibition=(ΔRFUcompound−ΔRFUBackground)/(ΔRFUNegative control−ΔRFUBackground) * 100% Inhibition was then plotted along the Y-axis, with the test concentrations as indicated on the X-axis. The peptides were tested at indicated concentrations and stimulated with 32 nM (EC80) α-CGRP (Mean +/− SD, n=2).

T1 sequence (P30988 25-474): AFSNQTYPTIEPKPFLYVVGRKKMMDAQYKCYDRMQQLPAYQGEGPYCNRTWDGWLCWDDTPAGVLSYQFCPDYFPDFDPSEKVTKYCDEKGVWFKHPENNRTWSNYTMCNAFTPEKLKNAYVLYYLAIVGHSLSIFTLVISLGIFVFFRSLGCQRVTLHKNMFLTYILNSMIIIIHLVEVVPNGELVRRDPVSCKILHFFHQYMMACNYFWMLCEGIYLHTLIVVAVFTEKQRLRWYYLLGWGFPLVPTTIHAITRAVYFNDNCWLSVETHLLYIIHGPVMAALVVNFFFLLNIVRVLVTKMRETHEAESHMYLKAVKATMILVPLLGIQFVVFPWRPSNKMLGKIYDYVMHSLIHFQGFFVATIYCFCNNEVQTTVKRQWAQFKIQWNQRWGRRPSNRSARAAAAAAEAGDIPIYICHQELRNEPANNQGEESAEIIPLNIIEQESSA
T1 sequence (O60894 27-148): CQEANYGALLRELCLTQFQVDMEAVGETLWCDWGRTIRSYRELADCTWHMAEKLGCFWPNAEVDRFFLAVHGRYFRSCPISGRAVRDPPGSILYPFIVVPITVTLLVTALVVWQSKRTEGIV

Structure (SMILES)	inhibition at 1 µM
CC(C)C[C@H](NC(=O)[C@H](CCCNC(=N)N)NC(=O)CNC(=O)[C@H](CC(C)C)NC(=O)[C@@H](NC(=O)[C@@H]1CSSC[C@H](N)C(=O)N[C@@H](CO)C(=O)N[C@@H](CC(N)=O)C(=O)N[C@@H]([C@@H](C)O)C(=O)N[C@@H](C)C(=O)N[C@@H](C)C(=O)N1)C(C)C)C(=O)N[C@@H](CO)C(=O)N[C@@H](CCC(N)=O)C(=O)N[C@@H](CCC(=O)O)C(=O)N[C@@H](CC(C)C)C(=O)N[C@@H](Cc1c[nH]cn1)C(=O)N[C@@H](CCCNC(=N)N)C(=O)N[C@@H](CC(C)C)C(=O)N[C@@H](CCC(N)=O)C(=O)N[C@H](C(=O)N[C@@H](Cc1ccc(O)cc1)C(=O)N1CCC[C@H]1C(=O)N[C@@H](CCCNC(=N)N)C(=O)N[C@H](C(=O)N[C@@H](CC(N)=O)C(=O)N[C@H](C(=O)NCC(=O)N[C@@H](CO)C(=O)N[C@@H](CCCCN)C(=O)N[C@@H](C)C(=O)N[C@@H](Cc1ccccc1)C(N)=O)C(C)C)[C@@H](C)O)[C@@H](C)O [compound 8] (H-CSNTAACVLGRLSQELHRLQTYPRTNVGSKAF-NH2; disulfide 1-7 (inferred))	95.4%
CC(C)C[C@H](NC(=O)[C@H](CCCNC(=N)N)NC(=O)CNC(=O)[C@H](CC(C)C)NC(=O)[C@@H](NC(=O)[C@@H]1CSSC[C@H](NC(=O)[C@H](C)N)C(=O)N[C@@H](C(C)C)C(=O)N[C@@H](CC(C)C)C(=O)NCC(=O)N[C@@H](C)C(=O)N1)C(C)C)C(=O)N[C@@H](CO)C(=O)N[C@@H](CCC(N)=O)C(=O)N[C@@H](CCC(=O)O)C(=O)N[C@@H](CC(C)C)C(=O)N[C@@H](Cc1c[nH]cn1)C(=O)N[C@@H](CCCNC(=N)N)C(=O)N[C@@H](CC(C)C)C(=O)N[C@@H](CCC(N)=O)C(=O)N[C@H](C(=O)N[C@@H](Cc1ccc(O)cc1)C(=O)N1CCC[C@H]1C(=O)N[C@H](C(=O)N[C@@H](CC(=O)O)C(=O)N1CCC[C@H]1C(=O)N[C@@H](CO)C(=O)N[C@@H](CO)C(=O)N1CCC[C@H]1C(=O)N[C@@H](Cc1c[nH]cn1)C(=O)N[C@@H](CO)C(=O)N[C@@H](Cc1ccc(O)cc1)C(N)=O)C(C)C)[C@@H](C)O [compound 14] (H-ACVLGACVLGRLSQELHRLQTYPVDPSSPHSY-NH2; disulfide 2-7 (inferred))	51.9%
CC(C)C[C@H](NC(=O)[C@H](CCCNC(=N)N)NC(=O)CNC(=O)[C@H](CC(C)C)NC(=O)[C@@H](NC(=O)[C@@H]1CSSC[C@H](NC(=O)[C@H](C)N)C(=O)N[C@@H](CC(N)=O)C(=O)N[C@@H]([C@@H](C)O)C(=O)N[C@@H](C)C(=O)N[C@@H](C)C(=O)N1)C(C)C)C(=O)N[C@@H](CO)C(=O)N[C@@H](CCC(N)=O)C(=O)N[C@@H](CCC(=O)O)C(=O)N[C@@H](CC(C)C)C(=O)N[C@@H](Cc1c[nH]cn1)C(=O)N[C@@H](CCCNC(=N)N)C(=O)N[C@@H](CC(C)C)C(=O)N[C@@H](CCC(N)=O)C(=O)N[C@H](C(=O)N[C@@H](Cc1ccc(O)cc1)C(=O)N1CCC[C@H]1C(=O)N[C@@H](CCCNC(=N)N)C(=O)N[C@H](C(=O)N[C@@H](CC(N)=O)C(=O)N[C@H](C(=O)NCC(=O)N[C@@H](CO)C(=O)N[C@@H](CCCCN)C(=O)N[C@@H](C)C(=O)N[C@@H](Cc1ccccc1)C(N)=O)C(C)C)[C@@H](C)O)[C@@H](C)O [compound 4] (H-ACNTAACVLGRLSQELHRLQTYPRTNVGSKAF-NH2; disulfide 2-7 (inferred))	94.6%
CC(C)C[C@H](NC(=O)[C@H](CCCNC(=N)N)NC(=O)CNC(=O)[C@H](CC(C)C)NC(=O)[C@@H](NC(=O)[C@@H]1CSSC[C@H](NC(=O)[C@H](C)N)C(=O)N[C@@H](CC(=O)O)C(=O)N[C@@H]([C@@H](C)O)C(=O)N[C@@H](C)C(=O)N[C@@H](C(C)C)C(=O)N1)C(C)C)C(=O)N[C@@H](CO)C(=O)N[C@@H](CCC(N)=O)C(=O)N[C@@H](CCC(=O)O)C(=O)N[C@@H](CC(C)C)C(=O)N[C@@H](Cc1c[nH]cn1)C(=O)N[C@@H](CCCNC(=N)N)C(=O)N[C@@H](CC(C)C)C(=O)N[C@@H](CCC(N)=O)C(=O)N[C@H](C(=O)N[C@@H](Cc1ccc(O)cc1)C(=O)N1CCC[C@H]1C(=O)N[C@@H](CCCNC(=N)N)C(=O)N[C@H](C(=O)N[C@@H](CC(N)=O)C(=O)N[C@H](C(=O)NCC(=O)N[C@@H](CO)C(=O)N[C@@H](CCCCN)C(=O)N[C@@H](C)C(=O)N[C@@H](Cc1ccccc1)C(N)=O)C(C)C)[C@@H](C)O)[C@@H](C)O [compound 3] (H-ACDTAVCVLGRLSQELHRLQTYPRTNVGSKAF-NH2; disulfide 2-7 (inferred))	95.9%
CC(C)C[C@H](NC(=O)CNC(=O)[C@H](C)NC(=O)[C@H](CC(C)C)NC(=O)[C@H](CCCNC(=N)N)NC(=O)[C@H](Cc1c[nH]cn1)NC(=O)[C@@H](NC(=O)[C@@H](NC(=O)[C@@H]1CSSC[C@H](NC(=O)[C@H](C)N)C(=O)N[C@@H](CC(=O)O)C(=O)N[C@@H]([C@@H](C)O)C(=O)N[C@@H](C)C(=O)N[C@@H](C)C(=O)N1)C(C)C)[C@@H](C)O)C(=O)N[C@@H](CC(C)C)C(=O)N[C@@H](CO)C(=O)N[C@@H](CCCNC(=N)N)C(=O)N[C@@H](CO)C(=O)NCC(=O)NCC(=O)N[C@H](C(=O)N[C@H](C(=O)N[C@@H](CCCCN)C(=O)N[C@@H](CC(N)=O)C(=O)N[C@@H](CC(N)=O)C(=O)N[C@@H](Cc1ccccc1)C(=O)N[C@H](C(=O)N1CCC[C@H]1C(=O)N[C@H](C(=O)N[C@@H](CC(N)=O)C(=O)N[C@H](C(=O)NCC(=O)N[C@@H](CO)C(=O)N[C@@H](CCCCN)C(=O)N[C@@H](C)C(=O)N[C@@H](Cc1ccccc1)C(N)=O)C(C)C)[C@@H](C)O)C(C)C)C(C)C)C(C)C [compound 15]	23.3%
CC(C)C[C@H](NC(=O)[C@H](CCCNC(=N)N)NC(=O)CNC(=O)[C@H](CC(C)C)NC(=O)[C@@H](NC(=O)[C@@H]1CSSC[C@H](NC(=O)[C@H](C)N)C(=O)N[C@@H](CC(=O)O)C(=O)N[C@@H]([C@@H](C)O)C(=O)N[C@@H](C)C(=O)N[C@@H](C)C(=O)N1)C(C)C)C(=O)N[C@@H](CO)C(=O)N[C@@H](CCC(N)=O)C(=O)N[C@@H](CCC(=O)O)C(=O)N[C@@H](CC(C)C)C(=O)N[C@@H](Cc1c[nH]cn1)C(=O)N[C@@H](CCCNC(=N)N)C(=O)N[C@@H](CC(C)C)C(=O)N[C@@H](CCC(N)=O)C(=O)N[C@H](C(=O)N[C@@H](Cc1ccc(O)cc1)C(=O)N1CCC[C@H]1C(=O)N[C@@H](CCCNC(=N)N)C(=O)N[C@H](C(=O)N[C@@H](CC(N)=O)C(=O)N[C@H](C(=O)NCC(=O)N[C@@H](CO)C(=O)N[C@@H](CCCCN)C(=O)N[C@@H](C)C(=O)N[C@@H](Cc1ccccc1)C(N)=O)C(C)C)[C@@H](C)O)[C@@H](C)O [compound 1] (H-ACDTAACVLGRLSQELHRLQTYPRTNVGSKAF-NH2; disulfide 2-7 (inferred))	94.4%
CC(C)C[C@H](NC(=O)[C@H](CCCNC(=N)N)NC(=O)CNC(=O)[C@H](CC(C)C)NC(=O)[C@@H](NC(=O)[C@@H]1CSSC[C@H](NC(=O)[C@H](C)N)C(=O)N[C@@H](C(C)C)C(=O)N[C@@H](CC(C)C)C(=O)NCC(=O)N[C@@H](C)C(=O)N1)C(C)C)C(=O)N[C@@H](CO)C(=O)N[C@@H](CCC(N)=O)C(=O)N[C@@H](CCC(=O)O)C(=O)N[C@@H](CC(C)C)C(=O)N[C@@H](Cc1c[nH]cn1)C(=O)N[C@@H](CCCNC(=N)N)C(=O)N[C@@H](CC(C)C)C(=O)N[C@@H](CCC(N)=O)C(=O)N[C@H](C(=O)N[C@@H](Cc1ccc(O)cc1)C(=O)N1CCC[C@H]1C(=O)N[C@@H](CCCNC(=N)N)C(=O)N[C@H](C(=O)N[C@@H](CC(N)=O)C(=O)N[C@H](C(=O)NCC(=O)N[C@@H](CO)C(=O)N[C@@H](CCCCN)C(=O)N[C@@H](C)C(=O)N[C@@H](Cc1ccccc1)C(N)=O)C(C)C)[C@@H](C)O)[C@@H](C)O [compound 5] (H-ACVLGACVLGRLSQELHRLQTYPRTNVGSKAF-NH2; disulfide 2-7 (inferred))	88.5%
